Data as given in patent US11065293B2 (priority 2016, dated 2021).

Assays:
Format in all cases: in vivo, rats
[1] = organ weight after Taxol administration; settings: day 15, contrast group (Taxol) vs control group, experimental group even lower than control group
From the text: Cancer pain is a kind of pain caused by cancer, which is most common symptoms and most feared symptoms for patients. If the pain is not controlled properly, the life quality of patients would be affected severely. To understand the effect of presented pharmaceutical composition on cancer pain, the experiment was following: 6 to 7 week-old female rats (20-24 grams, ICR) were divided into control group, contrast group and experimental group. In control group, rats were not gave any medication. In contrast group and experimental group, rats were administered Taxol® (20 mg/kg) from day 0 to day 5 to induce the pain. Besides, the experimental group were also treated with presented pharmaceutical composition for 7 days before administered Taxol®, and continuously treated for 14 days after administered Taxol®. Therefore, the total days of presented pharmaceutical composition administered in experimental group is 21 days. The administered method is twice daily, and the dosage was 0.5-1.67 uL/mouse. On day 3, 7 and 14 during the drug administration, the tail flick latency (Tail-Flick Unit 37360) was conducted. The tail flick latency is used to evaluate the degree of change of pain threshold by heating the tail of rat through infrared.
Organ hypertrophy is common side effect induced by chemotherapy drugs. To understand the impact of the presented pharmaceutical compositions on organs, the female rats of example 5 were sacrificed on day 15. The heart, liver, spleen and kidney acquired from rats were weighted respectively.

[2] = tail flick latency after Taxol-induced pain; settings: Taxol 20 mg/kg day 0 to day 5; day 3, day 7 and day 14; composition 21 days twice daily, vs contrast group
Procedure: To understand the effect of presented pharmaceutical composition on cancer pain, the experiment was following: 6 to 7 week-old female rats (20-24 grams, ICR) were divided into control group, contrast group and experimental group. […] In contrast group and experimental group, rats were administered Taxol® (20 mg/kg) from day 0 to day 5 to induce the pain. Besides, the experimental group were also treated with presented pharmaceutical composition for 7 days before administered Taxol®, and continuously treated for 14 days after administered Taxol®. Therefore, the total days of presented pharmaceutical composition administered in experimental group is 21 days. The administered method is twice daily, and the dosage was 0.5-1.67 uL/mouse. On day 3, 7 and 14 during the drug administration, the tail flick latency (Tail-Flick Unit 37360) was conducted. The tail flick latency is used to evaluate the degree of change of pain threshold by heating the tail of rat through infrared.

white blood cells = settings: for the numbers of white blood cell, Day 0 before chemotherapy: day 0 before cyclophosphamide, experimental group pretreated 5 days with composition, disease and contrast groups not yet treated; for the numbers of white blood cell, Day 4 after chemotherapy: day 4 after cyclophosphamide, G-CSF on day 2 to day 4, composition twice daily 0.5-1.67 uL/mouse; for the numbers of white blood cell, Day 7 after chemotherapy: day 7 after cyclophosphamide; for the numbers of white blood cell, Day 10 after chemotherapy: day 10 after cyclophosphamide; for numbers of white blood cell (in words): disease group vs normal group, contrast group on day 7 and day 10, experimental group vs contrast group after chemotherapy
From the text: Furthermore, a common side effect of chemotherapy is a drop in the number of white blood cells, which leads to an increased risk of getting an infection. Currently, granulocyte colony stimulating factor (G-CSF) treatment can make white blood cell levels go up faster. However, patients may have one or more side effects of using G-CSF. To understand the effect of present pharmaceutical composition on white blood cells, cyclophosphamide-induced leukopenia experiment execute as follows: 6 to 7 week-old female rats (20-24 grams, ICR) were divided into normal group, disease group, contrast group and experimental group. In normal group, rats were not gave any medication. In disease, contrast and experimental group, rats were administered cyclophosphamide on day 0 to induce leukopenia. Besides, in contrast group, rats were also administered G-CSF on day 2 to day 4. In experimental group, rats were treated with presented pharmaceutical composition for 5 days before administered cyclophosphamide, and continuously treated for 10 days after administered cyclophosphamid. Therefore, the total days of presented pharmaceutical composition administered in experimental group is 15 days. The administered method of presented pharmaceutical composition is twice daily, and the dosage was 0.5-1.67 uL/mouse. The rats in each group were phlebotomized on day 0 before chemotherapy, and on day 4, day 7 and day 10 after chemotherapy.

| Molecule | heart weight ([1]; FIG. 8A) | liver weight ([1]; FIG. 8B) | spleen weight ([1]; FIG. 8C) | kidney weight ([1]; FIG. 8D) | tail flick latency [2] | the numbers of white blood cell, Day 0 before chemotherapy (white blood cells) | the numbers of white blood cell, Day 4 after chemotherapy (white blood cells) | the numbers of white blood cell, Day 7 after chemotherapy (white blood cells) | the numbers of white blood cell, Day 10 after chemotherapy (white blood cells) | numbers of white blood cell (in words) (white blood cells) |
| --- | --- | --- | --- | --- | --- | --- | --- | --- | --- | --- |
| CC(=O)O[C@H]1C(=O)[C@@]2(C)[C@H]([C@H](OC(=O)c3ccccc3)[C@]3(O)C[C@H](OC(=O)[C@H](O)[C@@H](NC(=O)c4ccccc4)c4ccccc4)C(C)=C1C3(C)C)[C@]1(OC(C)=O)CO[C@@H]1C[C@@H]2O [Taxol®] | significantly heavier | significantly heavier | significantly heavier | significantly heavier | lower |  |  |  |  |  |
| O=P1(N(CCCl)CCCl)NCCCO1 (stereo not drawn) [cyclophosphamide] |  |  |  |  |  | 887 | 56 | 333 | 772 | extremely reduced |
| G-CSF: granulocyte colony stimulating factor, given day 2 to day 4 after cyclophosphamide; contrast group of leukopenia experiment (protein, UniProt P09919 31-207, looked up) Granulocyte …: TPLGPASSLPQSFLLKCLEQVRKIQGDGAALQEKLVSECATYKLCHPEELVLLGHSLGIPWAPLSSCPSQALQLAGCLSQLHSGLFLYQGLLQALEGISPELGPTLDTLQLDVADFATTIWQQMEELGMAPALQPTQGAMPAFASAFQRRAGGVLVASHLQSFLEVSYRVLRHLAQP |  |  |  |  |  | 843 | 51 | 528 | 768 | increase |
